“Also recorded” adds a separate entry of the source. Where two headings read alike, the source gives them in different places. No end group written: not given here.
Key:
[1] = ThT fluorescence kinetics of fibril/aggregate formation; format: physicochemical; settings: ThT 10 μM, mean of triplicate
Experimental: Fibrils were detected by measuring the fluorescence intensity of Thioflavin T (ThT)[53]. A plate reader (Fluostar Optima, BMG LabTech, Ortenberg, Germany) and standard 96-wells flat-bottom black microtiter plates (Costar 3792, Sigma Aldrich, Saint-Louis, USA) were used in combination with excitation and emission filters, at 440 and 485 nm, respectively (ThT concentration: 10 μM). Peptide concentrations varied from 10 to 100 μM, at pH 3.4 (0.2 M glycine HCl in water), pH 7.4 (0.2 M KH2PO4 in water, 0.2 M K2HPO4, in water) and pH 9.1 (0.2 M glycine NaOH in water). The microtiter plate was shaken prior to measurements. Fluorescence intensity (arbitrary units, u.a.) was recorded every 10 min, during 40 h. Resulting curves were analyzed by using GraphPad Prism. Data are the means of experiments performed in triplicate.

[2] = Transmission electron microscopy of aggregates; format: physicochemical
Experimental: Peptides were dissolved in appropriate buffer at pH 3.4, 7.4 and 9.1 to reach peptide stock solutions of 100 μM. Each peptide was incubated in an Eppendorf tube during 48 h. One drop (20 μL) of each peptide solution was adsorbed onto glow-discharged carbon coated 200 mesh copper grids. After 2 min, the grids were dried and negatively stained during 45 s with a 2.5% uranyl acetate solution. Grids were blotted, dried, and examined by using a Zeiss 912 Omega (Zeiss, Marly-le-Roi, France) […] or a JEOL 2100 HC (Croissy, France) […].

[3] = Solubility as observed when preparing biological assays; settings: culture media; reason for exclusion from biological assays
[4] = Circular dichroism of the soluble peptide pool over time; format: physicochemical; settings: pH 9.1, peptide 100 μM, 25 °C, between 5 and 22 h
Experimental: CD spectra were recorded on a Jasco J-815 apparatus (Lisses, France) using quartz cells (0.1 cm path length, Hellma GmbH, Müllheim, Germany). Each peptide was dissolved (final concentration: 100 μM) in appropriate buffer solution, at pH 9.1. After an equilibration period of 5 min at 25 °C, CD spectra were recorded over the 190 to 260 nm wavelength range. Measurements were carried out at 1 nm intervals. Data points were acquired every 0.5 nm in continuous scanning mode (speed = 20 nm.min^−1, bandwidth = 1 nm). CD spectra were recorded after 0, 5, 22 and 28 h (unit: mean residue ellipticity [θ]MRE, in deg.cm^2.dmol^−1). Acquisitions were carried out using the software Spectra Manager. Recorded data (mean of five scans) were treated with GraphPad Prism. Buffer background was subtracted to avoid buffer and cell contributions.

[5] = cited from earlier work
Excerpt: Then, we have explored the biological effects of the peptide 2, not only on cell survival (in vitro study) but also in pain (in vivo study). […] Our approach consisting in designing a minimalist active ERα17p-derived peptide, the pharmacologically inert KRSKK motif was excluded from our study. […] Regarding phenotypes, a GPER-dependent ...

[6] = system: GPER knockout (KO) MDA-MB-231 cells; assay: Cell growth by automated cell counting; format: cell-based, human; settings: GPER KO MDA-MB-231, 72 h, increasing concentrations, 2.5% charcoal-stripped FBS, three independent experiments in triplicate
Experimental: (§1) MCF-7 (ER + , PR + , […] , GPER +) and HS578T (ER-, PR-, Her2-, GPER +) cells were cultured in RPMI-1640 and DMEM medium (Life Technologies, Courtaboeuf, France), respectively, supplemented with 10% (v/v) fetal bovine serum (FBS), 100 U/mL penicillin and 100 µg/mL streptomycin. MDA-MB-231 triple negative breast cancer cells were obtained from the ATCC (Manassas, VA, USA). Cells were maintained in DMEM/F12 (Dulbecco’s modified Eagle’s medium) with phenol red, supplemented with 5% fetal bovine serum (FBS) and 1% penicillin/streptomycin (Thermo Fisher Scientific, Monza, Italy). Cells were grown in a 37 °C incubator with 5% CO2.
(§2) Short guide RNA (sgRNA) sequence targeting human GPER was designed using the E-CRISP sgRNA Designer (http://www.e-crisp.org/E-CRISP/) and was cloned into the pSpCas9 (BB)-2A-Puro (PX459) plasmid, as previously described. The GPER sgRNA sequence used to generate the GPER knockout is as followed: sgGPER: 5′-[…]-3′. Next, the vector with sgRNA was transiently transfected into MDA-MB-231 cells using Lipofectamine LTX (Life Technologies, Milan Italy). […]
(§3) MDA-MB-231 WT and GPER KO cells were seeded in 24-well plates in regular growth medium. […] Cells were counted on day 4 using an automated cell counter (Life Technologies, Milan, Italy), following the manufacturer’s recommendations.

[7] = system: GPER (WT) MDA-MB-231 cells; assay: Cell growth by automated cell counting; format: cell-based, human; settings: WT MDA-MB-231, 72 h, increasing concentrations, 2.5% charcoal-stripped FBS, three independent experiments in triplicate
Experimental: as §1, §2, §3

[8] = system: tactile hypersensitivity in the murine CFA model; assay: von Frey test in Complete Freund's Adjuvant (CFA) inflammatory pain model; format: in vivo, C57BL/6j mice; settings: for 50% paw withdrawal threshold (PWT): seven days after CFA, mean ± SEM, n = 8 mice
Experimental: Experiments were performed according to ethical guidelines established by the International Association for the Study of Pain (IASP) and the relevant European legislation (Directive 2010/63/EU). They were also approved by the Auvergne Animal Experiment Ethics Committee, CE2A and the French Ministry of Higher Education and Innovation. Eight-week-old male C57BL/6j mice were purchased from Janvier Laboratories (Le Genest-Saint-Isle, France), housed under standard laboratory conditions (12 h light/dark cycle, temperature of 21 to 22 °C, 55% humidity under specific pathogen free conditions) and acclimatized for a week before testing. Food and water were available ad libitum.
Design, analysis and reporting were carried out in accordance with the ARRIVE guidelines[56]–[58]. To ensure the methodological quality of the study, Rice et al. recommendations were followed. Animals were randomly divided into eight mice per group. To assess different treatment effects over the same time interval and to avoid, thereby, unverifiable and time-variable environmental influence, treatments were administered following the method of equal blocks. All experiments were performed in a quiet room by the same blinded experimenter. ERα17p and PLMI peptides were dissolved in a saline solution prior to intraperitoneal administration (10 mL/kg).
A persistent inflammatory pain model was produced by injection under brief anesthesia (2.5% isoflurane inhalation) of Complete Freund's Adjuvant (CFA, 10 µL) on the left ankle joint of mice[60]. CFA consisted of Mycobacterium butyricum (Difco Laboratories, Detroit, USA) dissolved in paraffin oil and saline (0.9% NaCl). The solution was autoclaved 20 min at 120 °C. Behavior tests were performed before and seven days after CFA injection.
On behavior testing day, the mice were placed individually in Plexiglas compartments (8 cm (L) × 3.5 cm (W) × 8 cm (D)) and on an elevated wire mesh platform to allow access to the ventral surface of the hindpaws, and were allowed to acclimatize for one hour before testing. Von Frey filaments (0.02 to 1.4 g) were applied perpendicularly to the plantar surface of the paw. Paw withdrawal and licking were considered as positive responses. 50% paw withdrawal threshold (PWT) was determined using an adaptation of the Dixon up–down method, as described previously.
All data were analyzed using the Prism 8 software (GraphPad™ Software Inc., San Diego, CA). Data were tested for normality (Shapiro–Wilk test) and equal variance (Fisher test). For kinetic data, multiple measurements were compared with repeated measures (two-way ANOVA). Post hoc comparisons were performed by the Tukey’s test. […] AUC was expressed as mean ± SEM (g × min). […]

[9] = format: physicochemical; settings: for change of intensity of aliphatic proton signals (1H-NMR): 298 K, 65 h, 500 MHz
Experimental: ERα17p fibrilization was followed at 298 K by using a NMR spectrometer (Bruker AVANCE III 500 MHz) equipped with a triple resonance (^1H, ^15 N, ^13C) cryoprobe. Each sample (100 μM) was prepared extemporaneously in appropriate buffer at pH 3.4, 7.4 and 9.1. A 10:90 D2O:H2O mixture was added to the buffer to reach a final D2O percentage of 7.5%. The final volume was of 520 μL in a 5 mm tube. 1D proton experiments (eight scans) were carried out over 65 h, with a total of 258 spectra (1 spectrum each 15 min, 8 scan/spectrum). Spectra analysis was carried out with the Bruker Topspin software by focusing between 0.80 and 3.60 ppm aliphatic side-chains region.

[10] = system: inflammation and pain; settings: cited from earlier work
[11] = target: GPER; settings: binding within the ligand-binding site of GPER; cited from earlier work
Experimental: In physiological conditions (complete serum) and at the concentration of 10 μM, ERα17p triggers membrane-initiated pro-apoptotic events, in both ERα-positive and -negative breast cancer cell lines with, however, a preference for ERα-positive cancer cells. It decreases the ratio Bcl-xl/Bax, increases cleaved caspase-9 and induces a redistribution of actin through a mechanism requiring PI3K, ROCK and p38 MAPK, depending on cell line[21],[22]. Moreover, ERα17p induces a proteasome-dependent decrease of the levels of the G protein-coupled estrogen receptor (GPER), of activated EGFR and ERK1/2 ...

[12] = system: xenografted triple negative breast tumors; settings: 1.5 mg/kg body weight, three times a week for four weeks, mice; cited from earlier work
[13] = pH 9.1 (glycine NaOH 0.2 M in water), peptide 100 μM, 48 h incubation

NSLALSLT [peptide 1]
formation of aggregates (ThT fluorescence), fragments ([1]; pH 9.1 (glycine NaOH 0.2 M), peptide 100 μM, 40 h, ERα17p as reference): exponential increase of the fluorescence signal
length of stacked fibrils (TEM) [2, 13]: 1.5 μm
thickness of stacked fibrils (TEM) [2, 13]: 20 nm
solubility for biological assays [3]: insufficiently soluble; also recorded: poor solubility
decrease of the soluble pool (CD) [4]: 70%

PLMIKRSKKNSLALSLT [ERα17p]
formation of aggregates (ThT fluorescence) ([1]; pH 3.4 (0.2 M glycine HCl in water), peptide 10-100 μM, 40 h, ex 440/em 485 nm): No aggregation
formation of aggregates (ThT fluorescence) ([1]; pH 7.4 (0.2 M KH2PO4/0.2 M K2HPO4 in water), peptide 50 and 100 μM, 40 h): exponential time-dependent increase of the formation of aggregates
delay before formation of aggregates (ThT fluorescence) ([1]; pH 9.1 (0.2 M glycine NaOH in water), peptide 10 and 25 μM): 18 h
formation of aggregates (ThT fluorescence) ([1]; pH 9.1 (0.2 M glycine NaOH in water), peptide 50 and 100 μM, 40 h): exponential time-dependent increase of the formation of aggregates
cellular internalization [5]: poorly internalized
aggregates seen by TEM ([2]; pH 3.4, peptide 100 μM, 48 h incubation): no aggregate was detected
morphology of aggregates by TEM ([2]; pH 7.4, peptide 100 μM, 48 h incubation): granulations resembling to a dense network of prefibrillar amyloid oligomers
morphology of aggregates by TEM ([2]; pH 9.1, peptide 100 μM): entanglement network of mature amyloid fibrils
length of amyloid fibrils (TEM) ([2]; pH 9.1, peptide 100 μM, 48 h incubation): > 1 μm
effect on cell viability [6]: inactive
effect on cell viability [7]: able to reduce the viability
50% paw withdrawal threshold (PWT) ([8]; 1.25 mg/kg i.p., 45 min): 0.141 ± 0.025 g
50% paw withdrawal threshold (PWT) ([8]; 2.5 mg/kg i.p., 45 min): 0.293 ± 0.055 g
calculated EC50 of anti-hyperalgesic action ([8]; from AUC (0-180 min) of PWT variations, i.p., CFA model, von Frey test): 3.7 ± 1.9 mg/kg
change of intensity of aliphatic proton signals (1H-NMR) ([9]; pH 3.4, peptide 100 μM): No significant change
total amount of peptide remaining soluble (1H-NMR) ([9]; pH 7.4): about 40%
change of intensity of aliphatic proton signals (1H-NMR) ([9]; pH 9.1, peptide 100 μM): decay of the proton signals followed by a plateau
dose from which anti-inflammatory and analgesic actions are supported [10]: ≥ 2.5 mg/kg
Kd [11]: micromolar range
decrease of the size of xenografted triple negative breast tumors [12]: about 50%

CN1CC[C@]23c4c5ccc(O)c4O[C@H]2[C@@H](O)C=C[C@H]3[C@H]1C5 [morphine, reference compound]
50% paw withdrawal threshold (PWT) ([8]; 1 mg/kg, positive control, time not stated): 0.672 ± 0.041 g

Reference: PMC9873809, “Identification of a human estrogen receptor α tetrapeptidic fragment with dual antiproliferative and anti-nociceptive action” (Scientific Reports, 2023)
